# Key:
# S. aureus ATCC 33592 = format: cell-based; settings: serial passage at half-MIC
# [1] = tested on: vancomycin-resistant E. faecalis (ATCC 700802); settings: Table 3
# [2] = tested on: methicillin-resistant S. aureus (MRSA, USA100 lineage); settings: Table 3
# [3] = tested on: human red blood cells (hRBC's); assay: Hemolysis assay; format: cell-based
# Procedure, shortened: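 Washed human RBCs (K2 EDTA) as 5% v/v suspension in PBS, mixed 1:1 with two-fold serial peptide dilutions (250–1.6 μg/ml, or 1 mg/ml–6.3 μg/ml for lipidated γ-AApeptides) in PBS; 1 h at 37 °C. Supernatant OD 360 nm, normalised to PBS (0%) and 0.2% Triton-X-100 (100%); H50 = concentration giving 50% hemolysis.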
# [4] = tested on: methicillin-resistant S. aureus (ATCC 33592); settings: Table 3
# [5] = tested on: K. pneumoniae (ATCC 13383)
# B. anthracis = settings: Table 3
# [6] = tested on: multi-drug resistant S. epidermidis (RP62A); settings: Table 3
# [7] = tested on: multi-drug resistant P. aeruginosa ATCC 27853; settings: ATCC 27853
# C. albicans (ATCC 10231) = settings: ATCC 10231
Compound,"MIC, E. coli (E. coli (JM109)) [mg/L]","development of resistance (change in MIC over 17 passages), in words (S. aureus ATCC 33592; 17 days)","MIC, E. faecalis (vancomycin-resistant) [1] [mg/L]","MIC, MRSA USA100 [2] [mg/L]",Hemolysis (H50) [3] [µg/mL],"MIC, S. aureus (methicillin-resistant) [4] [mg/L]","MIC, K. pneumoniae (causing pneumonia) [5] [mg/L]","MIC, B. anthracis (lethal bioweapon) (B. anthracis) [mg/L]","MIC, S. epidermidis (multi-drug resistant) [6] [mg/L]","MIC, P. aeruginosa [7] [mg/L]","MIC, Fungi C. albicans (C. albicans (ATCC 10231)) [mg/L]","MIC, B. subtilis (B. subtilis (BR151)) [mg/L]",passages after which the MIC started to increase (S. aureus ATCC 33592)
CCCCCCCCCCCCCCCC(=O)N[C@@H](C)CN(CC(=O)N[C@@H](C)CN(CC(=O)N[C@@H](CC(C)C)CN(CC(=O)N[C@@H](CC(C)C)CN(CC(=O)N[C@@H](CC(C)C)CN(CC(N)=O)C(=O)CCCN)C(=O)CCCN)C(=O)CCCN)C(C)=O)C(C)=O [γAA2],2.5,did not cause resistance,5,10,>500,4,5,5,4,25 to 50,5,2.5,
"CCn1cc(C(=O)O)c(=O)c2cc(F)c(N3CCNCC3)cc21 [norfloxacin, reference compound]",,,,,,,,,,,,,three

# Reference: patent US10308686B2, “Gamma-AApeptides with potent and broad-spectrum antimicrobial activity” (priority 2012, dated 2019)
